The text below walks through data of patent US12378261B2, “One-step, fast, 18F-19F isotopic exchange radiolabeling of difluoro-dioxaborinins and use of such compounds in treatment” (CORNELL UNIVERSITY, priority 2018, dated 2025).

Data set [1] is described as follows: 19F NMR solvolytic stability of difluoro-dioxaborinins in water/DMSO. In kind it is physicochemical. The settings on record: for Fold increase in stability (90% → 10% H2O): 10% water/DMSO vs 90% water/DMSO; for times more resistant to solvolysis than DK-1: 50 M H2O. On the procedure:
Radioactive TLC and […]/^19F NMR studies were used to determine the solvolytic stability of difluoro-dioxaborinins.
(§1) Some difluoro-dioxaborinins are insoluble in water; therefore, solvolytic studies on these compounds were determined in 10% H2O/90% DMSO (5.55 M H2O, deionized). To relate the effect of water concentration to solvolysis, solvolytic studies on all water-soluble difluoro-dioxaborinins (DK-1, DK-2, DK-3, DK-6 and DK-15) were performed twice: once in 10% H2O/90% DMSO (5.55 M H2O) (FIG. 2A), and again in 90% H2O/10% DMSO (50 M H2O) (FIG. 2B). Studies performed in 50 M H2O reflect physiologically appropriate conditions, and allow comparison to literature aryl/alkyl trifluoroborate and dipyrromethene solvolytic stability measurements.^11, 14 Characterization in solutions with reduced water content, 5.55 M H2O, allows comparison of solvolytic rate constants to those of less-soluble difluoro-dioxaborinins. Difluorodioxaborinins solvolysis is not observed in pure (100%) DMSO.
The coefficient of determination (R^2) in all ^19F NMR solvolysis data closely follows single, 2 parameter exponential decay regression (f=a*exp(−k*x), R2 >0.99 in 88% of experiments).

Data set [2] is described as follows: Solubility in water (50 M H2O). In kind it is physicochemical. To be noted: 50 M H2O (90% H2O/10% DMSO). As for the experimental part:
as §1
Solvolysis is promoted by extending difluorodioxaborinin π-conjugation using moderately electron poor or electron-neutral substituents (DK-13 and DK-14). To evaluate the effect of extending the difluoro-dioxaborinin 4,5,6 π-system on solvolysis, compounds that bear extended π-conjugation through the difluoro-dioxaborinin moiety (positions 4, 5, and 6) were synthesized. ^19F NMR solvolytic measurements were performed only in 5.55 M H2O, as DK-13 and DK-14 are insoluble in 50 M H2O.

Data set [3] is described as follows: Optical properties (absorbance, fluorescence emission, quantum yield). The data set is classed as physicochemical. The settings on record: for Quantum yield: Methanol.
For a further data set, the system named is A549. The experiment in a line: Inhibition of cell proliferation (IC50, MTS). The data set is classed as cell-based. As for the experimental part: (§2) As shown in FIGS. 11A-11E, cell viability as a function of Curcumin-BF2 concentration was evaluated for each of the cell lines in Example 5, showing the compounds of the present technology are effective in inhibiting cancer cell proliferation.

The next data set deals with MDA-MB-231. The experiment in a line: Inhibition of cell proliferation (IC50, MTS). In kind it is cell-based. On the procedure:
as §2

The subject of another data set is HCT116. The experiment in a line: Inhibition of cell proliferation (IC50, MTS). In kind it is cell-based. As for the experimental part:
as §2

A further data set relates to HeLa. The experiment in a line: Inhibition of cell proliferation (IC50, MTS). The data set is classed as cell-based. As for the experimental part:
as §2

In a further data set the test system is MCF-7. The experiment in a line: Inhibition of cell proliferation (IC50, MTS). In kind it is cell-based. As for the experimental part: as §2
The subject of the next data set is sentinel nodes. The settings on record: non-targeted fluorescent contrasts, literature; cited from earlier work.

For the compound `CC1=CC(C)=[O+][B-](F)(F)O1` [DK-1], in [1], the “Fold increase in stability (90% → 10% H2O)” value is approximately 2.8. Also, the “solvolysis rate constant, k” value in data set [1] (50 M H2O (90% water, 10% DMSO)) worked out at 0.254 ± 0.002 h⁻¹. The “solvolysis in absence of water” value in data set [1] (100% DMSO) was “not observed”. Besides, the fraction decomposed in data set [1] ([…] (one fluoride-18 half-life), from rate constant at 50 M H2O) stood at 37%. Moreover, the solubility in water result in data set [2] is listed as “water-soluble”. Also, in data set [3], the Abs is on record as 279 nm, the Em turned out to be 305 nm, the “Extinction Coefficient” value was 9,180 cm^−1M^−1 and the “Stokes Shift” value stood at 26 nm.

Take `COc1cc(/C=C/C2=CC(/C=C/c3ccc(O)c(OC)c3)=[O+][B-](F)(F)O2)ccc1O` [Cur-BF2]: the IC50 in the data set with A549 (A549, 24 h) came to 27 ± 3 µM; in the data set on A549 (A549, 48 h), 5.5 ± 0.3 µM; in the data set on MDA-MB-231 (MDA-MB-231, 24 h) it was 11 ± 1 µM; with MDA-MB-231 (MDA-MB-231, 48 h), 6 ± 1 µM; in the data set with HCT116 (HCT116, 24 h) it was 3.31 ± 0.04 µM; with HCT116 (HCT116, 48 h), 4.3 ± 0.2 µM. Also, the 50% inhibitory concentration (IC50) in the data set with HeLa (24 h) came to 5.4 ± 0.4 µM; in the data set on HeLa (48 h), 4.2 ± 0.2 µM; in the data set on MCF-7 (MCF-7, 24 h) it was 10 ± 4 µM; in the data set with MCF-7 (MCF-7, 48 h) it was 4.8 ± 0.2 µM. Moreover, the solubility in water result in data set [2] is on record as “insoluble”. Further, the Abs in data set [3] stood at 500 nm. This compound returned an Em in data set [3] of 571 nm. Also, the “Extinction Coefficient” value in data set [3] was 73,000 cm^−1M^−1.

On to `CC1=[O+][B-](F)(F)OC(C)=C1C` [DK-2], for which, in data set [1], the “Fold increase in stability (90% → 10% H2O)” value is given as 3.2 and the “times more resistant to solvolysis than DK-1” value (shortened to “times more resistant”) was 6.2. Also, the solubility in water entry in [2] is given as “water-soluble”. In data set [3], the Abs was 303 nm, the Em is 307 nm, the “Extinction Coefficient” value was 12,200 cm^−1M^−1 and the “Stokes Shift” value was found to be 4 nm.

With `CCOC(=O)CCC1=C(C)O[B-](F)(F)[O+]=C1C` [DK-6], in [1], the “Fold increase in stability (90% → 10% H2O)” value worked out at 4.7 and the “times more resistant” value turned out to be 1.9. Moreover, the solubility in water entry in data set [2] is listed as “water-soluble”. Further, in data set [3], the Abs stood at 301 nm, the Em worked out at 307 nm, the “Extinction Coefficient” value is recorded as 12,600 cm^−1M^−1 and the “Stokes Shift” value is reported as 6 nm.

As to `COc1cc(/C=C/C(=O)CC(=O)/C=C/c2ccc(O)c(OC)c2)ccc1O` [Curcumin, reference compound], the half-inhibitory concentration (IC50) with A549 (Homo sapiens, A549, 24 h) was determined as 50 ± 4 µM; in the data set with A549 (Homo sapiens, A549, 48 h) it was 25 ± 1 µM; with MDA-MB-231 (Homo sapiens, MDA-MB-231, 24 h), 32 ± 13 µM; with MDA-MB-231 (Homo sapiens, MDA-MB-231, 48 h), 26 ± 6 µM; in the data set with HCT116 (Homo sapiens, HCT-116, HCT116, 24 h) it was 27 ± 5 µM; with HCT116 (Homo sapiens, HCT-116, HCT116, 48 h) it was 16 ± 2 µM. The IC50 in the data set with HeLa (Homo sapiens, 24 h) came to 16 ± 3 µM; in the data set on HeLa (Homo sapiens, 48 h) it was 19 ± 6 µM; with MCF-7 (Homo sapiens, MCF7, MCF-7, 24 h), 27 ± 8 µM; in the data set on MCF-7 (Homo sapiens, MCF7, MCF-7, 48 h) it was 35 ± 3 µM. The Abs in [3] amounted to 434 nm. In addition, the Em in data set [3] is listed as 535 nm. The “Extinction Coefficient” value in data set [3] is 56,500 cm^−1M^−1. The “Stokes Shift” value in [3] came to 101 nm. In addition, in data set [3], the Quantum yield stood at 2.4%.

For the compound `COc1ccc(C2=CC(c3ccc(C(C)(C)C)cc3)=[O+][B-](F)(F)O2)cc1` [DK-16], in [1] (5.55 M H2O), the “fold slower solvolysis (more stable) than DK-1” value turned out to be 15 and the “fold slower solvolysis than DK-2” value is reported as 2.2. The solubility in water entry in data set [2] is listed as “insoluble”. In data set [3], the Abs is 400 nm, the Em was found to be 439 nm, the “Extinction Coefficient” value is listed as 62,000 cm^−1M^−1 and the “Stokes Shift” value worked out at 39 nm. In [3], this compound came in with a Quantum yield of 67.3%.

Consider `CCN(CC)c1ccc(C(=C2C=CC(=[N+](CC)CC)C=C2)c2cc(S(=O)(=O)[O-])ccc2S(=O)(=O)[O-])cc1.[Na+]` [lymphazurin, isosulfan blue], for which the “behaviour in sentinel node mapping” value in the data set on sentinel nodes is reported as “travel through sentinel nodes to delineate multiple non-sentinel nodes”.

With `F[B-]1(F)OC(c2ccccc2)=CC(c2ccccc2)=[O+]1` [DK-13], in [1] (5.55 M H2O), the “fold slower solvolysis (more stable) than DK-1” value came out at 1.4 and the “times more rapid solvolysis than DK-2” value is 5.0. In [2], the solubility in water entry is listed as “insoluble”. In addition, in [3], the Abs was 363 nm, the Em is 413 nm, the “Extinction Coefficient” value was 38,000 cm^−1M^−1 and the “Stokes Shift” value came out at 50 nm. The compound further returned a Quantum yield in data set [3] of 11.2%.

Take `CCC1=C(C)O[B-](F)(F)[O+]=C1C` [DK-3]: in [1], the “Fold increase in stability (90% → 10% H2O)” value amounted to 3.5 and the “times more resistant” value is recorded as 5.6. Also, the solubility in water entry in data set [2] was “water-soluble”. For the same compound, in data set [3], the Abs is 303 nm, the Em is recorded as 306 nm, the “Extinction Coefficient” value is on record as 12,000 cm^−1M^−1 and the “Stokes Shift” value was determined as 3 nm.

On to `COc1cc(/C=C/C2=CC(/C=C/c3ccc(OC(=O)CCN4C(=O)C=CC4=O)c(OC)c3)=[O+][B-](F)(F)O2)ccc1OC(=O)CCN1C(=O)C=CC1=O` [Cur-BF2-2Mal], for which, in data set [1] (5.55 M H2O), the “fold more rapid solvolysis than Cur-BF2” value was determined as 24 and the “fold slower solvolysis (more stable) than DK-1” value was 2.1. For the same compound, in data set [3], the Abs worked out at 434 nm, the Em turned out to be 509 nm, the “Extinction Coefficient” value was 54,000 cm^−1M^−1 and the “Stokes Shift” value is on record as 75 nm. The Quantum yield in data set [3] worked out at 3.1%.

Consider `COc1ccc(C2=CC(c3ccc(OC)cc3)=[O+][B-](F)(F)O2)cc1` [DK-17], for which, in data set [1] (5.55 M H2O), the “fold slower solvolysis (more stable) than DK-1” value was 16 and the “fold slower solvolysis than DK-2” value is reported as 2.3. For the same compound, the solubility in water result in data set [2] is “insoluble”. Also, in [3], the Abs stood at 408 nm, the Em is reported as 438 nm, the “Extinction Coefficient” value is listed as 63,600 cm^−1M^−1 and the “Stokes Shift” value amounted to 30 nm. The compound also returned a Quantum yield in data set [3] of 65.8%.

As for `CC1=CC(c2ccccc2)=[O+][B-](F)(F)O1` [DK-14], the “fold more rapid solvolysis than DK-1” value in [1] (5.55 M H2O) worked out at 1.7. For the same compound, in data set [2], the solubility in water entry is listed as “insoluble”. In addition, in data set [3], the Abs is reported as 325 nm, the Em is listed as 328 nm, the “Extinction Coefficient” value is 19,800 cm^−1M^−1 and the “Stokes Shift” value was found to be 3 nm.

As for `CC1(C)C(/C=C/C=C/C=C/C=C2\N(CCCCS(=O)(=O)O)c3ccc4ccccc4c3C2(C)C)=[N+](CCCCS(=O)(=O)[O-])c2ccc3ccccc3c21` [indocyanine green], the “behaviour in sentinel node mapping” value in the data set with sentinel nodes is “travel through sentinel nodes to delineate multiple non-sentinel nodes”.

Regarding `CC1=C2CCCCC2=[O+][B-](F)(F)O1` [DK-15], in [1], the “Fold increase in stability (90% → 10% H2O)” value amounted to 5.0 and the “times more resistant” value amounted to 2.5. For the same compound, the solubility in water entry in [2] is on record as “water-soluble”. In data set [3], the Abs came to 303 nm, the Em is recorded as 307 nm, the “Extinction Coefficient” value was 12,000 cm^−1M^−1 and the “Stokes Shift” value is given as 4 nm.
